# How the values were obtained:
# Format in all cases: in vivo, rat
# [1] = tested on: CAR-induced thermal hyperalgesia; assay: Plantar test, thermal hyperalgesia after CAR injection; conditions: per os 30 min before CAR in 2% CMC; PEA 2 mg/kg, OEA 6 mg/kg, complex/silica 20 mg/kg; 1 h to 6 h after CAR, vs. vehicle; FIG. 2
# Experimental: (§1) The study was conducted on male Sprague-Dawley rats (200-235 g; Harlan, Nossan, Italy) fed ad libitum and housed in cages with a controlled sleep/wake cycle. Before the start of the experimentation, the animals were subjected to an acclimatization period of 1 week considering all the experimental procedures and protocols, compliant with the principles of the care of laboratory animals approved by the Italian Ministry of Health and respecting the guidelines of the European Economic Community. The animals were subjected to a single injection of 100 μl of saline solution containing 1% Carrageenan (CAR) in one of the two hind legs. Paw edema was measured with a plethysmometer (Ugo Basile, Comerio, Varese, Italy) (Salvemini D et al. Nitric oxide: A key mediator in the early and late phase of carrageenan-induced rat paw inflammation. Br. J. Pharmacol. 1996; 118: 829-838) before the CAR injection and after the inoculation thereof every hour for 6 h. The hyperalgesic responses to heat were assessed using the plantar test with a cut-off latency of 20 sec to avoid tissue damage. The rats were individually housed in plexiglass compartments to acclimatize them before subjecting them to thermal stimulation. The suspension latency period of the injected paw was determined by an electronic circuit and the results were expressed in seconds. […]
# [2] = tested on: tissue damage of the paw of animals subjected to CAR injection; assay: Histology of paw tissue (Hematoxylin/Eosin), tissue damage score; conditions: per os 30 min before CAR; PEA 2 mg/kg, OEA 6 mg/kg, complex/silica 20 mg/kg; tissue taken 6 h after CAR; FIG. 3
# Experimental: (§2) The study was conducted on male Sprague-Dawley rats (200-235 g; Harlan, Nossan, Italy) fed ad libitum and housed in cages with a controlled sleep/wake cycle. Before the start of the experimentation, the animals were subjected to an acclimatization period of 1 week considering all the experimental procedures and protocols, compliant with the principles of the care of laboratory animals approved by the Italian Ministry of Health and respecting the guidelines of the European Economic Community. […]
# [3] = tested on: paw edema of animals injected with CAR; assay: Carrageenan-induced paw edema, plethysmometer; conditions: per os 30 min before CAR in 2% CMC; PEA 2 mg/kg, OEA 6 mg/kg, complex/silica 20 mg/kg; 1 h to 6 h after CAR; FIG. 1
# Experimental: as §1, with “The rats were individually housed in plexiglass compartments to acclimatize them before subjecting them to thermal stimulation.” left out, “seconds. Edema was expressed as increased paw volume (mL) after the CAR injection with respect to the pre-injection value for all the animals.” for “seconds.”
# [4] = tested on: mast cells in the paw tissue; assay: Toluidine Blue staining of mast cells in paw tissue; conditions: per os 30 min before CAR; PEA 2 mg/kg, OEA 6 mg/kg, complex/silica 20 mg/kg; 6 h after CAR; PEA and OEA compared with sham; FIG. 4
# Experimental: as §2
Structure (SMILES),CAR-induced thermal hyperalgesia (plantar test latency) [1],paw tissue damage (E/E histological score) [2],edema (increased paw volume) caused by CAR [3],number of mast cells / mast cell infiltrate in paw tissue [4]
"CCCCCCCCCCCCCCCC(=O)NCCO [PEA, palmitoylethanolamide]",No analgesic effect,not capable of protecting the paw tissues,No significant reduction in the edema,significant increase in the number of mast cells
"CCCCCCCC/C=C\CCCCCCCC(=O)NCCO [OEA, oleoylethanolamide]",No analgesic effect,not capable of protecting the paw tissues,No significant reduction in the edema,significant increase in the number of mast cells
